These results are taken from ChEMBL document CHEMBL1201862, “PubChem BioAssay data set” (2004).

Among the test systems are 786-0; CCRF-CEM; COLO 205; HCT-15; IGROV-1; LOX IMVI; MOLT-4; OVCAR-3; OVCAR-8; RXF 393; SK-MEL-28; SK-OV-3; SNB-75; TK-10; UO-31; CAKI-1; SNB-19.
Holding throughout (assay): growth of human tumour cells (NCI), 48 h

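48-hour exposure; five concentrations; linearly interpolated endpoints. GI50 = concentration required for 50% inhibition of growth.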 Active and inactive are the calls of the source. No stated cut-off is given here; in the data, active = GI50 up to about 1.1 µM and inactive = higher.

Consider `O=C(CSc1nnc(Cc2ccccc2)o1)Nc1cccc([N+](=O)[O-])c1`, for which the GI50 in the assay with 786-0 was > 100 µM (inactive); with CCRF-CEM, > 100 µM (inactive); with COLO 205, > 100 µM (inactive); in the assay with HCT-15, over 100 µM; in the assay with IGROV-1 it was > 100 µM (inactive); with LOX IMVI it was > 100 µM (inactive). The GI50 in the assay on MOLT-4, with OVCAR-3, in the assay on OVCAR-8, in the assay with RXF 393, in the assay with SK-MEL-28 and with SK-OV-3 was > 100 µM (inactive) in each case. Besides, the figures for the GI50 in the assay with SNB-75, with TK-10 and with UO-31 were 58.5 µM (inactive), > 100 µM (inactive) and > 100 µM (inactive), respectively.

As to `CCOc1ccc(NCC(=O)N2CC(=O)Nc3ccccc32)cc1`, the GI50 with 786-0 is > 100 µM (inactive); with CAKI-1 it was > 100 µM (inactive); in the assay with CCRF-CEM it was > 100 µM (inactive); in the assay with COLO 205, > 100 µM (inactive); in the assay on HCT-15, over 100 µM; in the assay with LOX IMVI it was > 100 µM (inactive). In addition, the GI50 in the assay on MOLT-4, in the assay with OVCAR-3, in the assay with OVCAR-8, in the assay on RXF 393, in the assay with SK-MEL-28 and with SK-OV-3 was > 100 µM (inactive) in each case. Further, the GI50 with SNB-19, with SNB-75, in the assay with TK-10 and with UO-31 was > 100 µM (inactive) each time.

Turning to `COc1cc(NC(C)=O)c2[nH]c3c(C)cc(NC(C)=O)c(C)c3c2c1`, the GI50 in the assay with 786-0 was > 100 µM (inactive); in the assay with CAKI-1, > 100 µM (inactive); in the assay with CCRF-CEM, > 100 µM (inactive); with COLO 205 it was > 100 µM (inactive); in the assay with HCT-15 it was over 100 µM; with IGROV-1 it was > 100 µM (inactive). Moreover, the GI50 with MOLT-4, with OVCAR-3, with OVCAR-8, in the assay on RXF 393, with SK-MEL-28 and in the assay on SK-OV-3 was > 100 µM (inactive) in each case. Also, the GI50 with SNB-19, in the assay with SNB-75, in the assay on TK-10 and with UO-31 was > 100 µM (inactive) each time.

Take `C/C(CC(=O)Nc1ccc(Cl)cc1)=N\NC(=O)C[n+]1ccccc1`: the GI50 in the assay with 786-0, in the assay on CCRF-CEM, in the assay on COLO 205, with IGROV-1, in the assay with LOX IMVI and in the assay on MOLT-4 was > 100 µM (inactive) throughout. Moreover, the GI50 in the assay with OVCAR-3, in the assay with OVCAR-8, in the assay with RXF 393, with SK-MEL-28, in the assay on SK-OV-3 and with SNB-75 was > 100 µM (inactive) in each case. The GI50 with TK-10 and in the assay on UO-31 was > 100 µM (inactive) throughout.

For `COC(=O)C(CC(C)C)NC(=O)NC12CC3CC(CC(F)(C3)C1)C2` (stereo not given), the GI50 with 786-0, in the assay on CCRF-CEM, in the assay with COLO 205, in the assay with IGROV-1, in the assay on LOX IMVI and with MOLT-4 was > 100 µM (inactive) each time. Besides, the GI50 in the assay with OVCAR-3, with OVCAR-8, in the assay on RXF 393, with SK-MEL-28, with SK-OV-3 and in the assay with SNB-19 was > 100 µM (inactive) each time. For the same molecule, the GI50 with SNB-75 is 27.1 µM (inactive); in the assay with TK-10, > 100 µM (inactive); in the assay with UO-31, 46.6 µM (inactive).

As to `Cc1c(C)c2cc3c(=O)c(CCl)coc3c(C)c2oc1=O`, the GI50 is 60.5 µM (inactive) with 786-0; 48.3 µM (inactive) with CCRF-CEM; > 100 µM (inactive) in the assay on COLO 205; over 100 µM with HCT-15; > 100 µM (inactive) in the assay on IGROV-1; > 100 µM (inactive) in the assay with LOX IMVI. Also, the GI50 was > 100 µM (inactive) in the assay on MOLT-4; > 100 µM (inactive) with OVCAR-3; > 100 µM (inactive) with OVCAR-8; 57 µM (inactive) in the assay on RXF 393; > 100 µM (inactive) with SK-MEL-28; > 100 µM (inactive) with SK-OV-3. Also, the GI50 in the assay on SNB-19 is > 100 µM (inactive); in the assay with SNB-75 it was 76.4 µM (inactive); in the assay on TK-10, > 100 µM (inactive); with UO-31 it was > 100 µM (inactive).

In the case of `CC(=O)CCC#Cc1ccccc1C(=O)C(C)=[N+]=[N-]`, the GI50 in the assay with CCRF-CEM was 6.08 µM (inactive); with COLO 205 it was 14.9 µM (inactive); with HCT-15, 48.8 µM; in the assay with IGROV-1 it was 30 µM (inactive); in the assay on LOX IMVI, 32.2 µM (inactive); in the assay on MOLT-4, 19.8 µM (inactive). For the same molecule, the GI50 in the assay with OVCAR-3 is 28.5 µM (inactive); in the assay on OVCAR-8 it was 42.8 µM (inactive); with RXF 393, 23.6 µM (inactive); with SK-MEL-28 it was 18.2 µM (inactive); in the assay on SK-OV-3, 57.7 µM (inactive); in the assay on SNB-19 it was > 100 µM (inactive). Besides, the GI50 with SNB-75 was 15.6 µM (inactive); in the assay with TK-10, > 100 µM (inactive); in the assay with UO-31, 44.4 µM (inactive).

With `CC(C)=CCc1c(O)cc(O)c2c1OC(c1ccc(O)cc1)C(O)C2=O` (stereo not given), the GI50 with CCRF-CEM is > 10 µM (inactive); in the assay on COLO 205, 31 µM (inactive); with HCT-15, 21.7 µM; in the assay with IGROV-1 it was 32 µM (inactive); with LOX IMVI, 18.7 µM (inactive); in the assay on MOLT-4, > 10 µM (inactive). The GI50 with OVCAR-3 was 19.2 µM (inactive); in the assay on OVCAR-8 it was 31.8 µM (inactive); with RXF 393 it was 20.3 µM (inactive); in the assay on SK-MEL-28, 23.3 µM (inactive); in the assay on SK-OV-3, 38.4 µM (inactive); in the assay with SNB-19, 37.2 µM (inactive). The GI50 in the assay on SNB-75 is 26.8 µM (inactive); in the assay on TK-10, 24.9 µM (inactive); in the assay with UO-31, 40 µM (inactive).

On to `O=C1NC2OC(C(O)CO)C(O)C2O1` (stereo not given), for which the GI50 was > 100 µM (inactive) in the assay on 786-0; > 100 µM (inactive) in the assay with CAKI-1; > 100 µM (inactive) in the assay on CCRF-CEM; > 100 µM (inactive) in the assay with COLO 205; over 100 µM with HCT-15; > 100 µM (inactive) in the assay on IGROV-1. In addition, the GI50 in the assay on LOX IMVI, in the assay with MOLT-4, in the assay with OVCAR-3, in the assay with OVCAR-8, in the assay with SK-MEL-28 and in the assay with SK-OV-3 was > 100 µM (inactive) throughout. The GI50 in the assay on SNB-19, with SNB-75, in the assay on TK-10 and with UO-31 was > 100 µM (inactive) each time.

Take `CCOc1cccc2sc(N)nc12`: the GI50 in the assay on 786-0 was > 100 µM (inactive); with CAKI-1, > 100 µM (inactive); in the assay with COLO 205, > 100 µM (inactive); with HCT-15 it was over 100 µM; in the assay with IGROV-1, > 100 µM (inactive); with LOX IMVI, > 100 µM (inactive). The GI50 in the assay on MOLT-4, in the assay with OVCAR-3, in the assay with OVCAR-8, in the assay on RXF 393, in the assay on SK-MEL-28 and in the assay on SK-OV-3 was > 100 µM (inactive) throughout. The GI50 was > 100 µM (inactive) in the assay on SNB-19, > 100 µM (inactive) with SNB-75, > 100 µM (inactive) with TK-10 and 56.1 µM (inactive) in the assay on UO-31.

Take `Cc1ccccc1NC(=O)C(=O)CC(=O)c1ccc([N+](=O)[O-])cc1`: the GI50 in the assay on 786-0 is > 100 µM (inactive); in the assay with CAKI-1, > 100 µM (inactive); in the assay with COLO 205, > 100 µM (inactive); in the assay with HCT-15, over 100 µM; in the assay with IGROV-1, > 100 µM (inactive); with LOX IMVI it was > 100 µM (inactive). Also, the GI50 with OVCAR-3, in the assay with OVCAR-8, in the assay with RXF 393, with SK-MEL-28, with SK-OV-3 and in the assay with SNB-19 was > 100 µM (inactive) in each case. Moreover, the figures for the GI50 in the assay with SNB-75, in the assay with TK-10 and in the assay on UO-31 were 39.6 µM (inactive), > 100 µM (inactive) and > 100 µM (inactive), respectively.

For the molecule `CCOC(=O)CC1=CSC2=NCCN12`, the GI50 with 786-0 was > 100 µM (inactive); with CAKI-1, > 100 µM (inactive); in the assay with CCRF-CEM, > 100 µM (inactive); in the assay on COLO 205 it was > 100 µM (inactive); in the assay on HCT-15 it was over 100 µM; with IGROV-1 it was > 100 µM (inactive). The GI50 with LOX IMVI, in the assay on OVCAR-3, in the assay with OVCAR-8, in the assay with RXF 393, in the assay on SK-MEL-28 and in the assay with SK-OV-3 was > 100 µM (inactive) throughout. For the same molecule, the GI50 in the assay with SNB-19, in the assay with SNB-75, with TK-10 and with UO-31 was > 100 µM (inactive) throughout.

`COc1cc(C(=O)C/C(CCC(=O)Nc2ccc(Cl)cc2Cl)=N/NC(=O)C(N)=O)ccc1O`: the GI50 in the assay on 786-0 was > 100 µM (inactive); in the assay with CAKI-1, > 100 µM (inactive); with CCRF-CEM it was > 100 µM (inactive); with COLO 205, > 100 µM (inactive); in the assay with HCT-15, over 100 µM; with IGROV-1, > 100 µM (inactive). Besides, the GI50 with MOLT-4, in the assay on OVCAR-3, in the assay with OVCAR-8, with SK-MEL-28, with SK-OV-3 and with SNB-19 was > 100 µM (inactive) throughout. Besides, the results for the GI50 in the assay on SNB-75, in the assay with TK-10 and with UO-31 were 7.91 µM (inactive), > 100 µM (inactive) and 72.9 µM (inactive), respectively.
